In patent US20250144067A1, “PERSONALIZED STARVATION THERAPY FOR CANCER” (Faeth Therapeutics, Inc., priority 2021, published 2025):

Legend:
[1] = tested on: cancer cell lines; experiment: Drug validation in multiple cancer cell lines, four media conditions; format: cell-based, human; details: cholesterol-free+simvastatin medium compared to the other three media conditions
Procedure: (§1) A series of experiments were designed to assess the effect of cholesterol depletion and statin treatment on the anti-cancer effect of drugs identified in the FDA drug screens. Cancer cells were grown in media containing cholesterol and cholesterol-free media in the presence or absence of simvastatin. The effect of the drug identified in the FDA drug screens on cancer cell growth was measured.
[…]. Medium 1 was ‘complete medium’ containing all essential nutrients, including cholesterol. Medium 2 was cholesterol-free medium. Medium 3 was cholesterol-free medium supplemented with simvastatin 40 nM. […]
On Day 5, cell growth was measured by absorbance or fluorescence. For absorbance growth measurements, spent media was discarded, and wells were stained with a crystal violet staining solution, washed, and dried. […] Plates were read using a Biotek Powerwave plate reader to determine the absorbance of the crystal violet released as an indicator of cell growth at a wavelength of 595 nm. For fluorescence growth measurements, 100 μL of a resazurin solution was added to each well and the plate incubated at 37° C. for four hours. Plates were read using a Biotek Powerwave plate reader to determine the fluorescence of reosurfin as an indicator of cell growth at a wavelength of 590 nm. […]

[2] = tested on: H292 cells; experiment: Drug validation in H292 cells, three media conditions; format: cell-based, human; details: cholesterol-free medium + simvastatin 40 nM vs complete and cholesterol-free medium
Procedure: as §1
On Day 1, cells were seeded at a density of around 7500 cells/well in a Corning 96-well flat bottom culture plate in complete media containing 10% FBS.
On Day 5, spent media was discarded, and wells were stained with a crystal violet staining solution, washed and dried. 100 μL of 10% acetic acid was added to each well to release the crystal violet taken up by the cells. Plates were read using a Biotek Powerwave plate reader to determine the absorbance of the crystal violet released as an indicator of cell growth at a wavelength of 595 nm.
Growth curves showing absorbance of crystal violet at 595 nm were plotted from test wells against the logarithmic concentration of the validation drug. FIG. 7A-7C show growth of cancer cell lines in the three media conditions subjected to increasing doses of isavuconazole (FIG. 7A), pitolisant (FIG. 7B), or toremifene (FIG. 7C) from the FDA screen under validation. For each of the drugs being validated, there is a strong ‘left-shift’ in the dose response curve for cells are grown in the cholesterol-free medium+simvastatin.

[3] = tested on: SW480 colorectal tumour; experiment: Anti-tumour activity with low cholesterol diet in SW480 tumour bearing mice; format: in vivo, M-NSG mice
From the text: (§2) A series of in vivo experiments were designed to assess the effect of cholesterol depletion on cancer cell growth. The added role of statin treatment and additional therapeutic agents was studied by dosing mice and assessing tumor growth over a defined time period.
Immunodeficient M-NSG (NOD-Prkdc^scid Il2rgem1Smoc) mice were subcutaneously injected with human colorectal cancer SW480 cells and matrigel to initiate tumor development and randomly assigned into one of four experimental groups (n=6 per group): normal cholesterol diet “Normal Chol Diet” containing 0.2% dietary cholesterol and vehicle, low cholesterol diet “Low Chol Diet” containing less than 0.05% dietary cholesterol and vehicle, Low Chol Diet treated with atorvastatin at 15 mg/kg, or Low Chol Diet treated with toremifene at 2 mg/kg. Once the tumor volume reached ˜150 mm^3, experimental diets were commenced. Atorvastatin, vehicle, or toremifene treatment by oral gavage was initiated four days after the diet change and continued daily until the tumor volume exceeded 2000 mm^3 or the time end-point of three weeks after treatment initiation was reached. Throughout the course of the study, tumor volume was measured twice per week.

[4] = tested on: PC9 lung cancer tumors; experiment: Anti-tumour activity with low cholesterol diet in PC9 bearing mice; format: in vivo, C.B-17 SCID mice; details: Low Chol Diet + toremifene 2 mg/kg with simvastatin 10 mg/kg, daily oral gavage, compared to simvastatin 20 mg/kg
From the text: as §2
Immunodeficient C.B-17 SCID (C.B-Igh-1^b/IcrTac-Prkdc^scid) mice were subcutaneously injected with human lung cancer PC9 cells to initiate tumor development and randomly assigned into one of three experimental groups (n=6 per group): “Low Chol Diet” containing less than 0.05% dietary cholesterol and vehicle, Low Chol Diet and simvastatin 20 mg/kg, and Low Chol Diet and simvastatin 10 mg/kg in combination with toremifene 2 mg/kg. Once the tumor volume reached ˜200 mm^3, treatment was commenced with vehicle, simvastatin, and toremifene administered daily by oral gavage. Treatment continued for 28 days or until the tumor volume exceeded 2000 mm^3. Throughout the course of the study, tumor volume was measured twice per week.

In the case of CN(C)CCOc1ccc(/C(=C(/CCCl)c2ccccc2)c2ccccc2)cc1 [toremifene], the “anti-proliferative activity (dose-response curve shift)” value [1] is reported as “strong left-shift”, the “anti-proliferative effect of the drug (dose response curve shift)” value [2] is reported as “strongly enhanced” and the “tumor growth suppression, rank among the four conditions” value ([3]; Low Chol Diet + toremifene 2 mg/kg) is reported as “highest”. For the same molecule, the tumor growth suppression ([3]; Low Chol Diet + toremifene 2 mg/kg daily oral gavage vs Low Chol Diet + vehicle) was “enhanced” and the tumor growth suppression [4] was “enhanced the tumor growth suppression”.
